According to the supplement of paper PMC10307832:

Key:
Assay in all cases: relative viability (nuclei count vs DMSO), 5 days (fraction); higher = more cells survive
[1] = tested on: SW 900
Method in brief: (§1)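 The day after seeding in 1536-well plates, lung cancer cell lines were treated by pin tool with a single drug, or with a fixed anchor-drug dose together with five library-drug doses (not always all listed) in √10 steps. After 5 days, a combined fix-and-stain solution (final 0.05% Triton X-100, 1% formaldehyde, 1 ug/ml Hoechst) was added. Nuclei counted on 4× images gave relative viability as treated counts over vehicle counts, reported as the median of duplicate plates.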

[2] = tested on: H3255
Method in brief: as §1

[3] = tested on: COR-L23
Method in brief: as §1

[4] = tested on: NCI-H2170
Method in brief: as §1

[5] = tested on: NCI-H322M
Method in brief: as §1

[6] = tested on: NCI-H2023
Method in brief: as §1

[7] = tested on: EPLC-272H
Method in brief: as §1

[8] = tested on: NCI-H3122
Method in brief: as §1

[9] = tested on: NCI-H1563
Method in brief: as §1

[10] = tested on: NCI-H2347
Method in brief: as §1

[11] = tested on: NCI-H1650
Method in brief: as §1

[12] = tested on: HCC-15
Method in brief: as §1

[13] = tested on: NCI-H520
Method in brief: as §1

[14] = tested on: NCI-H1793
Method in brief: as §1

[15] = tested on: PC-14
Method in brief: as §1

[16] = tested on: NCI-H2405
Method in brief: as §1

[17] = tested on: NCI-H647
Method in brief: as §1

[18] = tested on: LOU-NH91
Method in brief: as §1

[19] = tested on: UMC-11
Method in brief: as §1

[20] = tested on: NCI-H441
Method in brief: as §1

[21] = tested on: 201T
Method in brief: as §1

[22] = tested on: NCI-H1734
Method in brief: as §1

Compound: Cc1sc2c(c1C)C(c1ccc(Cl)cc1)=N[C@@H](CC(=O)OC(C)(C)C)c1nnc(C)n1-2 [JQ1] + COc1cc2c(Oc3ccc(NC(=O)C4(C(=O)Nc5ccc(F)cc5)CC4)cc3F)ccnc2cc1OCCCN1CCOCC1 [Foretinib] (partner 0.25 µM)
- relative viability ([1]; first compound 0.04 µM): 0.699
- relative viability ([1]; first compound 0.1265 µM): 1.06
- relative viability ([1]; first compound 0.4 µM): 0.377
- relative viability ([1]; first compound 1.265 µM): 0.224
- relative viability ([1]; first compound 4 µM): 0.188
- relative viability ([2]; first compound 0.04 µM): 0.78
- relative viability ([2]; first compound 0.1265 µM): 0.884
- relative viability ([2]; first compound 0.4 µM): 0.987
- relative viability ([2]; first compound 1.265 µM): 0.793
- relative viability ([2]; first compound 4 µM): 0.442
- relative viability ([3]; first compound 0.04 µM): 0.98
- relative viability ([3]; first compound 0.1265 µM): 0.73
- relative viability ([3]; first compound 0.4 µM): 0.892
- relative viability ([3]; first compound 1.265 µM): 0.663
- relative viability ([3]; first compound 4 µM): 0.432
- relative viability ([4]; first compound 0.04 µM): 1.03
- relative viability ([4]; first compound 0.1265 µM): 0.928
- relative viability ([4]; first compound 0.4 µM): 0.837
- relative viability ([4]; first compound 1.265 µM): 0.762
- relative viability ([4]; first compound 4 µM): 0.626
- relative viability ([5]; first compound 0.04 µM): 0.955
- relative viability ([5]; first compound 0.1265 µM): 1.15
- relative viability ([5]; first compound 0.4 µM): 0.753
- relative viability ([5]; first compound 1.265 µM): 0.513
- relative viability ([5]; first compound 4 µM): 0.441
- relative viability ([6]; first compound 0.04 µM): 0.779
- relative viability ([6]; first compound 0.1265 µM): 0.816
- relative viability ([6]; first compound 0.4 µM): 0.597
- relative viability ([6]; first compound 1.265 µM): 0.252
- relative viability ([6]; first compound 4 µM): 0.199
- relative viability ([7]; first compound 0.04 µM): 0.639
- relative viability ([7]; first compound 0.1265 µM): 0.508
- relative viability ([7]; first compound 0.4 µM): 0.454
- relative viability ([7]; first compound 1.265 µM): 0.247
- relative viability ([7]; first compound 4 µM): 0.191
- relative viability ([8]; first compound 0.04 µM): 1.04
- relative viability ([8]; first compound 0.1265 µM): 0.814
- relative viability ([8]; first compound 0.4 µM): 0.766
- relative viability ([8]; first compound 1.265 µM): 0.698
- relative viability ([8]; first compound 4 µM): 0.532
- relative viability ([9]; first compound 0.04 µM): 0.96
- relative viability ([9]; first compound 0.1265 µM): 0.733
- relative viability ([9]; first compound 0.4 µM): 0.756
- relative viability ([9]; first compound 1.265 µM): 0.681
- relative viability ([9]; first compound 4 µM): 0.692
- relative viability ([10]; first compound 0.04 µM): 1.04
- relative viability ([10]; first compound 0.1265 µM): 1.15
- relative viability ([10]; first compound 0.4 µM): 1.02
- relative viability ([10]; first compound 1.265 µM): 0.842
- relative viability ([10]; first compound 4 µM): 0.393
- relative viability ([11]; first compound 0.04 µM): 0.894
- relative viability ([11]; first compound 0.1265 µM): 0.656
- relative viability ([11]; first compound 0.4 µM): 0.568
- relative viability ([11]; first compound 1.265 µM): 0.26
- relative viability ([11]; first compound 4 µM): 0.161
- relative viability ([12]; first compound 0.04 µM): 0.914
- relative viability ([12]; first compound 0.4 µM): 0.767
- relative viability ([12]; first compound 1.265 µM): 0.66
- relative viability ([12]; first compound 4 µM): 0.589
- relative viability ([13]; first compound 0.04 µM): 0.732
- relative viability ([13]; first compound 0.1265 µM): 0.793
- relative viability ([13]; first compound 0.4 µM): 0.81
- relative viability ([13]; first compound 1.265 µM): 0.35
- relative viability ([13]; first compound 4 µM): 0.277
- relative viability ([14]; first compound 0.04 µM): 0.65
- relative viability ([14]; first compound 0.1265 µM): 0.788
- relative viability ([14]; first compound 0.4 µM): 0.713
- relative viability ([14]; first compound 1.265 µM): 0.728
- relative viability ([14]; first compound 4 µM): 0.483
- relative viability ([15]; first compound 0.04 µM): 0.906
- relative viability ([15]; first compound 0.1265 µM): 0.645
- relative viability ([15]; first compound 0.4 µM): 0.625
- relative viability ([15]; first compound 1.265 µM): 0.582
- relative viability ([15]; first compound 4 µM): 0.477
- relative viability ([16]; first compound 0.04 µM): 1.08
- relative viability ([16]; first compound 0.1265 µM): 1.02
- relative viability ([16]; first compound 0.4 µM): 1.03
- relative viability ([16]; first compound 1.265 µM): 0.835
- relative viability ([16]; first compound 4 µM): 0.744
- relative viability ([17]; first compound 0.04 µM): 1.21
- relative viability ([17]; first compound 0.1265 µM): 0.914
- relative viability ([17]; first compound 0.4 µM): 0.841
- relative viability ([17]; first compound 1.265 µM): 0.242
- relative viability ([17]; first compound 4 µM): 0.204
- relative viability ([18]; first compound 0.04 µM): 0.944
- relative viability ([18]; first compound 0.1265 µM): 0.777
- relative viability ([18]; first compound 0.4 µM): 0.618
- relative viability ([18]; first compound 1.265 µM): 0.625
- relative viability ([18]; first compound 4 µM): 0.482
- relative viability ([19]; first compound 0.04 µM): 0.954
- relative viability ([19]; first compound 0.1265 µM): 0.663
- relative viability ([19]; first compound 0.4 µM): 0.372
- relative viability ([19]; first compound 1.265 µM): 0.286
- relative viability ([19]; first compound 4 µM): 0.238
- relative viability ([20]; first compound 0.04 µM): 1.08
- relative viability ([20]; first compound 0.1265 µM): 0.981
- relative viability ([20]; first compound 0.4 µM): 0.842
- relative viability ([20]; first compound 1.265 µM): 0.832
- relative viability ([20]; first compound 4 µM): 0.57
- relative viability ([21]; first compound 0.04 µM): 1.02
- relative viability ([21]; first compound 0.1265 µM): 0.704
- relative viability ([21]; first compound 0.4 µM): 0.514
- relative viability ([21]; first compound 1.265 µM): 0.343
- relative viability ([21]; first compound 4 µM): 0.215
- relative viability ([22]; first compound 0.04 µM): 0.963
- relative viability ([22]; first compound 0.1265 µM): 0.834
- relative viability ([22]; first compound 0.4 µM): 0.872
- relative viability ([22]; first compound 1.265 µM): 0.499
- relative viability ([22]; first compound 4 µM): 0.531
